Data from PubChem BioAssay AID2117 (The Scripps Research Institute Molecular Screening Center, 2009).

How the values were obtained:
Experiment in all cases: LXR, FXR and VP16 reporter activity, cell-based, luciferase reporter, ROR modulator project, late-stage follow-up (AID 2117)
[1] = target: Bile acid receptor (Homo sapiens) (UniProt Q96RI1); details: cell-based luciferase reporter panel, FXR, activation potency
[2] = target: Oxysterols receptor LXR-beta (Homo sapiens) (UniProt P55055); details: cell-based luciferase reporter panel, activation potency
[3] = target: Glucose-6-phosphatase catalytic subunit 1 (Homo sapiens) (UniProt P35575); details: cell-based luciferase reporter panel, G6Pase Promoter
Sequence of Glucose-6-phosphatase catalytic subunit 1 (Homo sapiens) (P35575 whole entry, looked up): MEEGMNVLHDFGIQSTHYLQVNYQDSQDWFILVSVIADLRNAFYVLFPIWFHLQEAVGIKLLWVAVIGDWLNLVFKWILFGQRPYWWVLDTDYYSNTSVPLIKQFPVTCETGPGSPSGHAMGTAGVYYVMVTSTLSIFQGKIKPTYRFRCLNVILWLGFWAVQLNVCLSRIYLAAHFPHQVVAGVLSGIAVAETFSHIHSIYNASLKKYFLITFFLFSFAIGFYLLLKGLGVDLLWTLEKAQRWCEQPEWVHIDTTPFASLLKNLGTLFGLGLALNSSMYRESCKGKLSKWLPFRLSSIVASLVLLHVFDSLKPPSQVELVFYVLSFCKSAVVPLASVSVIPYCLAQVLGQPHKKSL

Sequence of Bile acid receptor (Homo sapiens) (Q96RI1 whole entry, looked up): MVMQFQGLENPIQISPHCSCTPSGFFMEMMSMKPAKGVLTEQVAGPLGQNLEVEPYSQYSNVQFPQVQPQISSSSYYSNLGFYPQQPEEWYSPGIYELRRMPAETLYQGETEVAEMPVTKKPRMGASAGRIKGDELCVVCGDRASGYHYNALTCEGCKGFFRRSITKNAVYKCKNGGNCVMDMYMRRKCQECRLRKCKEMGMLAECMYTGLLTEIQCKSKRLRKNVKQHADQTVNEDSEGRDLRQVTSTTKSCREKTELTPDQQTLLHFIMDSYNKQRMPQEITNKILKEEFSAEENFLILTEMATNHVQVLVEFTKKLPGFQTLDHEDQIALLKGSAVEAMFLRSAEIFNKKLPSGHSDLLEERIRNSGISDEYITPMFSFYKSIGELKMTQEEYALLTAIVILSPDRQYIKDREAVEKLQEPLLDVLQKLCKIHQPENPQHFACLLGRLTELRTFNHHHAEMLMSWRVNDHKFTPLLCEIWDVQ
Sequence of Oxysterols receptor LXR-beta (Homo sapiens) (P55055 whole entry, looked up): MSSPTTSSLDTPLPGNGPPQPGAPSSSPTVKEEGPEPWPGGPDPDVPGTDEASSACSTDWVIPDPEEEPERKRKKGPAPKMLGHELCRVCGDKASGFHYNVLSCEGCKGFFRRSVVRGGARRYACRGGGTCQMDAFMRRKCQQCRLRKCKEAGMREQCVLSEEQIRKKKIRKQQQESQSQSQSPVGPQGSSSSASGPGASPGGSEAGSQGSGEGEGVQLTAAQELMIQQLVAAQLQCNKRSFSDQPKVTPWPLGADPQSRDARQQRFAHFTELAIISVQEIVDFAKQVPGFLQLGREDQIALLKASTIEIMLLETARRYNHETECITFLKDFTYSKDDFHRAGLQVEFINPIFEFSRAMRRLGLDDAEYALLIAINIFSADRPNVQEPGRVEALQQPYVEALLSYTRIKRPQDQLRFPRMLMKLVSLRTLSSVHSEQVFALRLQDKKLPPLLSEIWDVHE

EC50 [1] [µM] | EC50 [2] [µM] | IC50 [3] [µM] | SMILES
> 20 | > 6 |  | O=S(=O)(Nc1ccc(C(O)(C(F)(F)F)C(F)(F)F)cc1)c1cccc2cccnc12
> 20 | > 20 | 8.4 | CC(C)(C)c1ccc(S(=O)(=O)Nc2ccc(C(O)(C(F)(F)F)C(F)(F)F)cc2)cc1
12 | 5.7 |  | O=S(=O)(Nc1ccc(C(O)(C(F)(F)F)C(F)(F)F)cc1)c1cccc2ccccc12
> 20 | 12 |  | O=S(=O)(Nc1ccc(C(O)(C(F)(F)F)C(F)(F)F)cc1)c1ccc(Cl)c2nonc12
> 20 | 18 |  | COc1cccc(S(=O)(=O)Nc2ccc(C(O)(C(F)(F)F)C(F)(F)F)cc2)c1
